The term EC50 denotes the concentration at which the effect is half-maximal.

The subject of the experiment is Bmi-1. Description: Sandwich ELISA Assay (Bmi-1 ELISA) in HT-1080 cells. The experiment is classed as cell-based. An outline of the steps:
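Bmi-1 in lysates was measured by a three-antibody ELISA with TMB, OD450 minus OD570 reference, interpolated on a GST-tagged recombinant Bmi-1 standard curve, 0-8000 pg/mL. Lysates came from HT-1080 cells treated 40-48 h with compound, final DMSO 0.5%.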
In general terms: ELISA stands for enzyme-linked immunosorbent assay.
Take `CSc1ccc(Nc2cc(N)nc(-n3c(C)nc4ccccc43)n2)cc1` [Cpd 146, 2-(2-methyl-1H-benzimidazol-1-yl)-N-[4-(methylsulfanyl]phenyl]pyrimidine-4,6-diamine]: the EC50 was 10 to 100 nM.
Compound `CC1(c2nc3ccccc3n2-c2nc(N)cc(Nc3ccc(C(F)(F)F)cc3)n2)CC1` [Cpd 147, 2-[2-(1-methylcyclopropyl)-1H-benzimidazol-1-yl]-N-[4-(trifluoromethyl]phenyl]pyrimidine-4,6-diamine] showed an EC50 of 100 to 3000 nM.
Regarding `CC1(c2nc3ccccc3n2-c2nc(N)cc(Nc3ccc(OC(F)F)cc3)n2)CC1` [Cpd 148, N-[4-(difluoromethoxy)phenyl]-2-[2-(1-methylcyclopropyl)-1H-benzimidazol-1-yl]pyrimidine-4,6-diamine], the EC50 was in the range of 100 to 3000 nM.
Compound `Cc1nn2ccccc2c1-c1nc(N)cc(Nc2ccc(C(F)(F)F)cc2)n1` [Cpd 154, 2-(2-methylpyrazolo[1,5-a]pyridin-3-yl)-N-[4-(trifluoromethyl]phenyl]pyrimidine-4,6-diamine] displayed an EC50 of 100 to 3000 nM.
In turn, `Nc1nc(-n2c(C3CC3)nc3ncc(F)cc32)nc(Nc2ccc(OC(F)F)cc2)c1F` [Cpd 155, 2-(2-cyclopropyl-6-fluoro-1H-imidazo[4,5-b]pyridin-1-yl)-N-[4-(difluoromethoxy)phenyl]-5-fluoropyrimidine-4,6-diamine] gave an EC50 of 10 to 100 nM.
As for `CCc1nc2ccccc2n1-c1nc(N)cc(Nc2ccc(OC(F)F)cc2)n1` [Cpd 156, N-[4-(difluoromethoxy)phenyl]-2-(2-ethyl-1H-benzimidazol-1-yl)pyrimidine-4,6-diamine], the figure is 1 to 10 nM; as for `CCc1nc2ccccc2n1-c1nc(N)cc(Nc2ccc(OC(F)F)c(F)c2)n1` [Cpd 157, N-[4-(difluoromethoxy)-3-fluorophenyl]-2-(2-ethyl-1H-benzimidazol-1-yl)pyrimidine-4,6-diamine], 10 to 100 nM.
In turn, `Cc1nc2cc(Cl)ccc2n1-c1nc(N)c(F)c(Nc2ccc(C(F)(F)F)cc2)n1` [Cpd 158, 2-(5-chloro-2-methyl-1H-benzimidazol-1-yl)-5-fluoro-N-[4-(trifluoromethyl)phenyl]pyrimidine-4,6-diamine] gave a concentration giving a half-maximal response (EC50) of 100 to 3000 nM.
The compound `Cc1nc2cc(Cl)ccc2n1-c1nc(N)c(F)c(Nc2ccc(OC(F)F)cc2)n1` [Cpd 159, 2-(5-chloro-2-methyl-1H-benzimidazol-1-yl)-N-[4-(difluoromethoxy)phenyl]-5-fluoropyrimidine-4,6-diamine] showed an EC50 of 100 to 3000 nM.
In the case of `Cc1nc2ccc(Cl)cc2n1-c1nc(N)c(F)c(Nc2ccc(C(F)(F)F)cc2)n1` [Cpd 160, 2-(6-chloro-2-methyl-1H-benzimidazol-1-yl)-5-fluoro-N-[4-(trifluoromethyl)phenyl]pyrimidine-4,6-diamine], the EC50 lay in the range of 10 to 100 nM.
`Cc1nc2ccc(Cl)cc2n1-c1nc(N)c(F)c(Nc2ccc(OC(F)F)cc2)n1` [Cpd 161, 2-(6-chloro-2-methyl-1H-benzimidazol-1-yl)-N-[4-(difluoromethoxy)phenyl]-5-fluoropyrimidine-4,6-diamine]: the EC50 is 10 to 100 nM.
Consider `CCc1nc2cc(F)ccc2n1-c1nc(N)c(F)c(Nc2ccc(C(F)(F)F)cc2)n1` [Cpd 162, 2-(2-ethyl-5-fluoro-1H-benzimidazol-1-yl)-5-fluoro-N-[4-(trifluoromethyl)phenyl]pyrimidine-4,6-diamine], for which the EC50 is 10 to 100 nM.
Consider `CCc1nc2cc(F)ccc2n1-c1nc(N)c(F)c(Nc2ccc(OC(F)F)cc2)n1` [Cpd 163, N-[4-(difluoromethoxy)phenyl]-2-(2-ethyl-5-fluoro-1H-benzimidazol-1-yl)-5-fluoropyrimidine-4,6-diamine], for which the EC50 was in the range of 10 to 100 nM.
For `CCc1nc2ccc(F)cc2n1-c1nc(N)c(F)c(Nc2ccc(C(F)(F)F)cc2)n1` [Cpd 164, 2-(2-ethyl-6-fluoro-1H-benzimidazol-1-yl)-5-fluoro-N-[4-(trifluoromethyl)phenyl]pyrimidine-4,6-diamine], the EC50 was 10 to 100 nM.

These data come from patent US11180483B2, “Substituted reverse pyrimidine Bmi-1 inhibitors” (PTC Therapeutics, Inc., priority 2012, dated 2021).
